Each structure is given as a SMILES string. Entries after “also recorded” stand apart in the source; their conditions may differ.

These results are taken from US20230210807A1, “USE OF BENZOATE COMPOUND IN TREATMENT OF SARS-COV-2 INFECTIONS” (ACADEMY OF MILITARY MEDICAL SCIENCES, priority 2020, published 2023).

Data set [1] has as its system MERS-CoV. The following applies: in vitro, cited from earlier work.
For data set [2], the system named is SARS-CoV-2. As to the kind of experiment: Reduction of viral nucleic acid load in SARS-CoV-2 infected Vero E6 cells (qRT-PCR of supernatant). Format: cell-based, SARS-CoV-2 (nCoV-2019BetaCoV/Wuhan/WIV04/2019 strain). The conditions noted are these: for Copy number of virus genome: Vero E6 cells, 100TCID50, 48 hours.
Data set [3] concerns Vero-E6 cells. As to the kind of experiment: Cytotoxicity test of drugs (CCK-8 kit). The conditions noted are these: 48 hours; for Cell viability (% of vehicle control): Vero-E6 cells. Background: Tetrazolium assays rely on reduction of a dye to a coloured formazan, in cell work by metabolically active cells.

As a reminder, the IC50 is the point on the concentration scale where inhibition reaches its midpoint. In the case of `N=C(N)c1ccc2cc(OC(=O)c3ccc(N=C(N)N)cc3)ccc2c1` [Nafamostat, 6-amidino-2-naphthyl-4-guanidino benzoate], in data set [1] (versus Camostat), the “IC50 relative to that of Camostat (times higher)” value is reported as 10 times. Also, in data set [1] (read-out: IC50 (MERS-CoV infection in vitro)), the IC50 is 100 nM. For the same molecule, the “Copy number of virus genome” value in data set [2] (0.14 µM) was 1169068894.5±28678551.13; in data set [2] (0.41 µM) it was 2051893138.5±1115069812.46; in data set [2] (1.23 µM) it was 2805092897.49±419609425.32; in data set [2] (3.70 µM) it was 3601892897.5±680084251.56; in data set [2] (11.11 µM), 2116737884±785155013.49; in data set [2] (33.33 µM), 1015568394.5±70116949.22. In data set [2] (100 µM, copies per milliliter per method), the “Copy number of virus genome” value was determined as 395904281±285024470.56. Further, in data set [2] (48 hours after infection by SARS-CoV-2, Vero E6 cells, FIG. 1(a)), the “Viral RNA load in the cells (in words)” value is listed as “can reduce the viral RNA load”. Moreover, the “Inhibition of replication of SARS-CoV-2 virus genome in the infected supernatant (in words)” value in data set [2] (concentrations of 100 µM, 33 µM, 11.1 µM and 3.7 µM) was “could effectively inhibit the replication of SARS-CoV-2 virus genome”. Moreover, the “Cell viability (% of vehicle control)” value is 103.25±2.53 % of vehicle control in data set [3] (0.14 µM); 106.14±1.77 % of vehicle control in data set [3] (0.41 µM); 95.85±2.57 % of vehicle control in data set [3] (1.23 µM); 94.88±4.44 % of vehicle control in data set [3] (3.70 µM); 93.68±1.83 % of vehicle control in data set [3] (11.11 µM); 92.64±2.16 % of vehicle control in data set [3] (33.33 µM). In data set [3] (100 µM), the “Cell viability (% of vehicle control)” value was 92.65±3.37 % of vehicle control. For the same molecule, in data set [3] (all test concentrations, Vero E6 cells), the “Cytotoxicity (in words)” value is on record as “no cytotoxicity was observed; also recorded: no toxic effect on the cells at all concentrations”.
